Results: patent US20250197406A1, “INDAZOLES AS HEMATOPOIETIC PROGENITOR KINASE 1 (HPK1) INHIBITORS AND METHODS FOR USING SAME” (1ST Biotherapeutics, Inc., priority 2022, published 2025)
Where a name gives a salt, the structure may show the parent alone.

Molecular target: recombinant human HPK1 (Homo sapiens (Human), UniProt Q92918)
Assay: HPK1 kinase assay (Promega ADP-Glo kinase assay)
Type: biochemical
Details: In vitro activity against HPK1, 5 ng HPK1, MBP substrate, ATP 25 μM, 30° C. 40 minutes
Method in brief: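 ADP-Glo luminescence assay with 5 ng recombinant human HPK1, MBP substrate and ATP (added as 25 µM solution) in Tris pH 7.5, 20 mM MgCl2, BSA, DTT, 0.5% DMSO. Reaction ran 40 min at 30 °C. IC50 was fitted from percent inhibition over an inhibitor concentration range.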

Sequence of recombinant human HPK1 (Q92918 whole entry): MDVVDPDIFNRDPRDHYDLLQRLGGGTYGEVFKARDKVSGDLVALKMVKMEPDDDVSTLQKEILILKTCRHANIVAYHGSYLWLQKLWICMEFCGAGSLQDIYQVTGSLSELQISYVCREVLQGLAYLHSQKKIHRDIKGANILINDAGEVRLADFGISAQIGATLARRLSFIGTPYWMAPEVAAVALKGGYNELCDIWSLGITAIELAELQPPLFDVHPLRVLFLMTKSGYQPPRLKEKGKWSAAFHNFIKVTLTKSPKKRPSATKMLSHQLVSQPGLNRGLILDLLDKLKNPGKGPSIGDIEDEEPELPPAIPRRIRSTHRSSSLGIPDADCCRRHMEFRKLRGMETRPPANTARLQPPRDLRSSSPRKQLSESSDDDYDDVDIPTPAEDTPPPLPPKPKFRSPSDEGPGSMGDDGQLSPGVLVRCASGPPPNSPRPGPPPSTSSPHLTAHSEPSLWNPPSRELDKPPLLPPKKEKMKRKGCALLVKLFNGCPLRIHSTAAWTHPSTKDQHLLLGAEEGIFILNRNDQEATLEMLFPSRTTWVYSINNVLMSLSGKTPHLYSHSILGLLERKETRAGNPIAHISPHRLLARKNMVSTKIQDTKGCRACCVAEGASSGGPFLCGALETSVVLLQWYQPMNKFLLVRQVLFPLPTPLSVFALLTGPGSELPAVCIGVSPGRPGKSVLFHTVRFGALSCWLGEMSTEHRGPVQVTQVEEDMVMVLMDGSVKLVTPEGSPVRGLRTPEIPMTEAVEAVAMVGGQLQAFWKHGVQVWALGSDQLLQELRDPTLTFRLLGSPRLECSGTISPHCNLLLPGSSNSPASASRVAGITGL

Compound	IC50
CC(=O)NC(c1c(F)c(C(F)(F)F)c(-c2cn3cc(NC(=O)[C@@H]4C[C@@H]4F)nc3cn2)c2cn[nH]c12)C1CC1 (stereo partly drawn) [Example 56, (1S,2S)-N-(6-(7-(acetamido(cyclopropyl)methyl)-6-fluoro-5-(trifluoromethyl)-1H-indazol-4-yl)imidazo[1,2-a]pyrazin-2-yl)-2-fluorocyclopropane-1-carboxamide formate]	< 100 nM
CC(N[S+]([O-])C(C)(C)C)c1c(F)c(Cl)c(-c2cn3cc(NC(=O)[C@@H]4C[C@@H]4F)nc3cn2)c2cn[nH]c12 (stereo partly drawn) [Example 86, (1S,2S)-N-(6-(7-(1-((tert-butylsulfinyl)amino)ethyl)-5-chloro-6-fluoro-1H-indazol-4-yl)imidazo[1,2-a]pyrazin-2-yl)-2-fluorocyclopropane-1-carboxamide]	< 100 nM
CCNC(=O)Nc1cn2cc(-c3c(Cl)c(F)c(NC(C)C)c4[nH]ncc34)ncc2n1 [Example 119, 1-(6-(5-chloro-6-fluoro-7-(isopropylamino)-1H-indazol-4-yl)imidazo[1,2-a]pyrazin-2-yl)-3-ethylurea]	< 100 nM
CC(=O)NC(c1c(F)c(C(F)F)c(-c2cn3cc(NC(=O)[C@@H]4C[C@@H]4F)nc3cn2)c2cn[nH]c12)C1CC1 (stereo partly drawn) [Example 54, (1S,2S)-N-(6-(7-(acetamido(cyclopropyl)methyl)-5-(difluoromethyl)-6-fluoro-1H-indazol-4-yl)imidazo[1,2-a]pyrazin-2-yl)-2-fluorocyclopropane-1-carboxamide]	< 100 nM
COC(=O)C1OC(N(c2c(F)c(Cl)c(-c3cn4cc(NC(=O)[C@@H]5C[C@@H]5F)nc4cn3)c3cn[nH]c23)C(C)C)C(OC(C)=O)C(OC(C)=O)C1OC(C)=O (stereo partly drawn) [Example 18, 2-((5-chloro-6-fluoro-4-(2-((1S,2S)-2-fluorocyclopropane-1-carboxamido)imidazo[1,2-a]pyrazin-6-yl)-1H-indazol-7-yl)(isopropyl)amino)-6-(methoxycarbonyl)tetrahydro-2H-pyran-3,4,5-triyl triacetate]	101 to 500 nM
CSC(C)C(=O)Nc1cn2cc(-c3c(Cl)c(F)c(NC(C)C)c4[nH]ncc34)ncc2n1 (stereo not shown) [Example 105, N-(6-(5-chloro-6-fluoro-7-(isopropylamino)-1H-indazol-4-yl)imidazo[1,2-a]pyrazin-2-yl)-2-(methylthio)propanamide]	101 to 500 nM
Cc1c(F)c(NC(C)C)c2[nH]ncc2c1-c1cn2cc(NC(=O)[C@H]3C[C@H]3F)nc2cn1 [Example 33]	< 100 nM
CC(NC=O)c1c(F)c(C(F)F)c(-c2cn3cc(NC(=O)[C@@H]4C[C@@H]4F)nc3cn2)c2cn[nH]c12 (stereo partly drawn) [Example 75, (1S,2S)-N-(6-(5-(difluoromethyl)-6-fluoro-7-(1-formamidoethyl)-1H-indazol-4-yl)imidazo[1,2-a]pyrazin-2-yl)-2-fluorocyclopropane-1-carboxamide]	< 100 nM
CC(NC(=O)C1CC1)c1c(F)c(C(F)F)c(-c2cn3cc(NC(=O)[C@@H]4C[C@@H]4F)nc3cn2)c2cn[nH]c12 (stereo partly drawn) [Example 76, (1S,2S)-N-(6-(7-(1-(cyclopropanecarboxamido)ethyl)-5-(difluoromethyl)-6-fluoro-1H-indazol-4-yl)imidazo[1,2-a]pyrazin-2-yl)-2-fluorocyclopropane-1-carboxamide]	< 100 nM
COC1CCCC1c1c(F)c(C)c(-c2cn3cc(NC(=O)[C@@H]4C[C@@H]4F)nc3cn2)c2cn[nH]c12 (stereo partly drawn) [Example 16, (1S,2S)-2-fluoro-N-(6-(6-fluoro-7-(2-methoxycyclopentyl)-5-methyl-1H-indazol-4-yl)imidazo[1,2-a]pyrazin-2-yl)cyclopropane-1-carboxamide]	< 100 nM
CC(C)Nc1c(F)c(Cl)c(-c2cn3cc(NC(=O)[C@@H]4C[C@@H]4C(F)F)nc3cn2)c2cn[nH]c12 [Example 88, (1R,2S)-N-(6-(5-chloro-6-fluoro-7-(isopropylamino)-1H-indazol-4-yl)imidazo[1,2-a]pyrazin-2-yl)-2-(difluoromethyl)cyclopropane-1-carboxamide]	< 100 nM
CSCC(=O)Nc1cn2cc(-c3c(Cl)c(F)c(NC(C)C)c4[nH]ncc34)ncc2n1 [Example 100, N-(6-(5-chloro-6-fluoro-7-(isopropylamino)-1H-indazol-4-yl)imidazo[1,2-a]pyrazin-2-yl)-2-(methylthio)acetamide]	< 100 nM
Cc1c(F)c(C(C)N)c2[nH]ncc2c1-c1cn2cc(NC(=O)[C@@H]3C[C@@H]3F)nc2cn1 (stereo partly drawn) [Example 25, (1S,2S)-N-(6-(7-(1-aminoethyl)-6-fluoro-5-methyl-1H-indazol-4-yl)imidazo[1,2-a]pyrazin-2-yl)-2-fluorocyclopropane-1-carboxamide]	101 to 500 nM
CC(C)Nc1c(F)c(Cl)c(-c2cn3cc(NC(=O)C4CCN4)nc3cn2)c2cn[nH]c12 (stereo not shown) [Example 108, N-(6-(5-chloro-6-fluoro-7-(isopropylamino)-1H-indazol-4-yl)imidazo[1,2-a]pyrazin-2-yl)azetidine-2-carboxamide]	101 to 500 nM
O=C(NC(c1c(F)c(C(F)F)c(-c2cn3cc(NC(=O)[C@@H]4C[C@@H]4F)nc3cn2)c2cn[nH]c12)C1CC1)C1CC1 (stereo partly drawn) [Example 77, (1S,2S)-N-(6-(7-(cyclopropanecarboxamido(cyclopropyl)methyl)-5-(difluoromethyl)-6-fluoro-1H-indazol-4-yl)imidazo[1,2-a]pyrazin-2-yl)-2-fluorocyclopropane-1-carboxamide]	< 100 nM
Cc1c(F)c(C(C)NC(=O)C(F)(F)F)c2[nH]ncc2c1-c1cn2cc(NC(=O)[C@@H]3C[C@@H]3F)nc2cn1 (stereo partly drawn) [Example 71, (1S,2S)-2-fluoro-N-(6-(6-fluoro-5-methyl-7-(1-(2,2,2-trifluoroacetamido)ethyl)-1H-indazol-4-yl)imidazo[1,2-a]pyrazin-2-yl)cyclopropane-1-carboxamide]	< 100 nM
CC(=O)NC(c1c(F)c(C)c(-c2cn3cc(NC(=O)[C@@H]4C[C@@H]4F)nc3cn2)c2cn[nH]c12)C1CC1 (stereo partly drawn) [Example 42, (1S,2S)-N-(6-(7-(acetamido(cyclopropyl)methyl)-6-fluoro-5-methyl-1H-indazol-4-yl)imidazo[1,2-a]pyrazin-2-yl)-2-fluorocyclopropane-1-carboxamide]	< 100 nM
CC(C)Nc1c(F)c(Cl)c(-c2cn3cc(NC(=O)C4CC4)nc3cn2)c2cn[nH]c12 [Example 46, N-(6-(5-chloro-6-fluoro-7-(isopropylamino)-1H-indazol-4-yl)imidazo[1,2-a]pyrazin-2-yl)cyclopropanecarboxamide]	< 100 nM
CC(C)Nc1c(F)c(Cl)c(-c2cn3cc(NC(=O)CO)nc3cn2)c2cn[nH]c12 [Example 129, N-(6-(5-chloro-6-fluoro-7-(isopropylamino)-1H-indazol-4-yl)imidazo[1,2-a]pyrazin-2-yl)-2-hydroxyacetamide]	< 100 nM
O=CNC(c1c(F)c(C(F)(F)F)c(-c2cn3cc(NC(=O)[C@@H]4C[C@@H]4F)nc3cn2)c2cn[nH]c12)C1CC1 (stereo partly drawn) [Example 115, (1S,2S)-N-(6-(7-(cyclopropyl(formamido)methyl)-6-fluoro-5-(trifluoromethyl)-1H-indazol-4-yl)imidazo[1,2-a]pyrazin-2-yl)-2-fluorocyclopropane-1-carboxamide]	< 100 nM
CC(N[S+]([O-])C(C)(C)C)c1c(F)c(C(F)(F)F)c(-c2cn3cc(NC(=O)[C@@H]4C[C@@H]4F)nc3cn2)c2cn[nH]c12 (stereo partly drawn) [Example 87, (1S,2S)-N-(6-(7-(1-((tert-butylsulfinyl)amino)ethyl)-6-fluoro-5-(trifluoromethyl)-1H-indazol-4-yl)imidazo[1,2-a]pyrazin-2-yl)-2-fluorocyclopropane-1-carboxamide]	< 100 nM
CC(=O)Nc1cn2cc(-c3c(Cl)c(F)c(CN4CC(O)C4)c4[nH]ncc34)ncc2n1 [Example 150, N-(6-(5-chloro-6-fluoro-7-((3-hydroxyazetidin-1-yl)methyl)-1H-indazol-4-yl)imidazo[1,2-a]pyrazin-2-yl)acetamide]	501 to 1000 nM
CC(C)Nc1c(F)c(Cl)c(-c2cn3cc(NC(=O)C(C)C)nc3cn2)c2cn[nH]c12 [Example 81, N-(6-(5-chloro-6-fluoro-7-(isopropylamino)-1H-indazol-4-yl)imidazo[1,2-a]pyrazin-2-yl)isobutyramide]	< 100 nM
CC(C)Nc1c(F)c(Cl)c(-c2cn3cc(NC(=O)C4CCN(C)CC4)nc3cn2)c2cn[nH]c12 [Example 123, N-(6-(5-chloro-6-fluoro-7-(isopropylamino)-1H-indazol-4-yl)imidazo[1,2-a]pyrazin-2-yl)-1-methylpiperidine-4-carboxamide]	< 100 nM
Cc1c(F)c(C(C)N2C(=O)c3ccccc3C2=O)c2[nH]ncc2c1-c1cn2cc(NC(=O)[C@@H]3C[C@@H]3F)nc2cn1 (stereo partly drawn) [Example 68, (1S,2S)-N-(6-(7-(1-(1,3-dioxoisoindolin-2-yl)ethyl)-6-fluoro-5-methyl-1H-indazol-4-yl)imidazo[1,2-a]pyrazin-2-yl)-2-fluorocyclopropane-1-carboxamide]	101 to 500 nM
CC(=O)Nc1cn2cc(-c3c(Cl)c(F)c(C(C)N4CCC(O)C4)c4[nH]ncc34)ncc2n1 (stereo not shown) [Example 163, N-(6-(5-chloro-6-fluoro-7-(1-(3-hydroxypyrrolidin-1-yl)ethyl)-1H-indazol-4-yl)imidazo[1,2-a]pyrazin-2-yl)acetamide]	501 to 1000 nM
Cc1c(F)c(C(C)C(F)F)c2[nH]ncc2c1-c1cn2cc(NC(=O)[C@@H]3C[C@@H]3F)nc2cn1 (stereo partly drawn) [Example 5, (1S,2S)-N-(6-(7-(1,1-difluoropropan-2-yl)-6-fluoro-5-methyl-1H-indazol-4-yl)imidazo[1,2-a]pyrazin-2-yl)-2-fluorocyclopropane-1-carboxamide]	< 100 nM
CC(=O)NC(C)c1c(F)c(C)c(-c2cn3cc(NC(=O)[C@@H]4C[C@@H]4F)nc3cn2)c2cn[nH]c12 (stereo partly drawn) [Example 70, (1S,2S)-N-(6-(7-(1-acetamidoethyl)-6-fluoro-5-methyl-1H-indazol-4-yl)imidazo[1,2-a]pyrazin-2-yl)-2-fluorocyclopropane-1-carboxamide]	< 100 nM
